# In the supplement of paper PMC10307832:
# Columns and labels:
# Test in all cases: relative viability (nuclei count vs DMSO), 5 days (fraction); higher = more cells survive
# Crizotinib + Pictilisib = compound: C[C@@H](Oc1cc(-c2cnn(C3CCNCC3)c2)cnc1N)c1c(Cl)ccc(F)c1Cl [Crizotinib] + CS(=O)(=O)N1CCN(Cc2cc3nc(-c4cccc5[nH]ncc45)nc(N4CCOCC4)c3s2)CC1 [Pictilisib] (partner 1 µM)
# In short: (§1)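 The day after seeding in 1536-well plates, lung cancer cell lines were treated by pin tool with a single drug, or with a fixed anchor-drug dose together with five library-drug doses (not always all listed) in √10 steps. After 5 days, a combined fix-and-stain solution (final 0.05% Triton X-100, 1% formaldehyde, 1 ug/ml Hoechst) was added. Nuclei counted on 4× images gave relative viability as treated counts over vehicle counts, reported as the median of duplicate plates.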
# Olaparib + Palbociclib = compound: O=C(c1cc(Cc2n[nH]c(=O)c3ccccc23)ccc1F)N1CCN(C(=O)C2CC2)CC1 [Olaparib] + CC(=O)c1c(C)c2cnc(Nc3ccc(N4CCNCC4)cn3)nc2n(C2CCCC2)c1=O [Palbociclib] (partner 0.5 µM)
# In short: as §1
# Olaparib + Pictilisib = compound: O=C(c1cc(Cc2n[nH]c(=O)c3ccccc23)ccc1F)N1CCN(C(=O)C2CC2)CC1 [Olaparib] + CS(=O)(=O)N1CCN(Cc2cc3nc(-c4cccc5[nH]ncc45)nc(N4CCOCC4)c3s2)CC1 [Pictilisib] (partner 1 µM)
# In short: as §1
# Olaparib + Tozasertib = compound: O=C(c1cc(Cc2n[nH]c(=O)c3ccccc23)ccc1F)N1CCN(C(=O)C2CC2)CC1 [Olaparib] + Cc1cc(Nc2cc(N3CCN(C)CC3)nc(Sc3ccc(NC(=O)C4CC4)cc3)n2)n[nH]1 [Tozasertib] (partner 0.1 µM)
# In short: as §1
Cell Line,relative viability (Crizotinib + Pictilisib; first compound 0.01 µM),relative viability (Crizotinib + Pictilisib; first compound 0.03162 µM),relative viability (Crizotinib + Pictilisib; first compound 0.1 µM),relative viability (Crizotinib + Pictilisib; first compound 0.3162 µM),relative viability (Crizotinib + Pictilisib; first compound 1 µM),relative viability (Olaparib + Palbociclib; first compound 0.08 µM),relative viability (Olaparib + Palbociclib; first compound 0.253 µM),relative viability (Olaparib + Palbociclib; first compound 2.53 µM),relative viability (Olaparib + Palbociclib; first compound 8 µM),relative viability (Olaparib + Pictilisib; first compound 0.08 µM),relative viability (Olaparib + Pictilisib; first compound 0.253 µM),relative viability (Olaparib + Pictilisib; first compound 2.53 µM),relative viability (Olaparib + Pictilisib; first compound 8 µM),relative viability (Olaparib + Tozasertib; first compound 0.08 µM),relative viability (Olaparib + Tozasertib; first compound 0.253 µM),relative viability (Olaparib + Tozasertib; first compound 2.53 µM),relative viability (Olaparib + Tozasertib; first compound 8 µM)
NCI-H441,0.436,0.395,0.432,0.34,0.443,0.268,0.257,0.234,0.243,0.676,0.387,0.552,0.456,0.602,0.561,0.639,0.541
ABC-1,0.54,0.781,0.588,0.743,0.728,0.814,–,0.476,0.862,0.916,0.777,0.65,0.625,0.22,0.149,0.198,0.182
NCI-H2170,0.316,0.315,0.286,0.277,0.292,0.427,0.395,0.411,0.315,0.346,0.277,0.305,0.332,0.81,0.806,0.705,0.629
NCI-H1944,0.322,0.341,0.328,0.344,0.343,0.34,0.335,0.316,0.271,0.363,0.319,0.328,0.351,0.217,0.198,0.228,0.231
PC-3 [JPC-3],0.687,0.804,0.722,0.705,0.709,0.531,–,0.52,0.534,0.857,0.592,0.712,0.673,0.913,0.855,0.946,0.843
NCI-H1648,–,–,–,–,–,0.236,0.305,–,0.246,–,–,–,–,–,0.482,–,0.556
NCI-H1975,0.28,0.294,0.308,0.344,0.266,0.593,0.607,0.569,0.502,0.309,0.27,0.284,0.266,0.821,0.715,0.85,0.699
NCI-H650,0.883,0.893,0.865,0.799,0.783,0.324,0.312,0.311,0.227,1.03,0.912,0.661,0.748,0.974,0.72,0.656,0.541
NCI-H1623,–,–,–,–,–,–,–,–,–,–,–,–,–,0.474,0.446,0.493,0.413
NCI-H1755,0.413,0.485,0.444,0.309,0.437,0.415,0.436,0.445,0.436,0.553,0.383,0.405,0.338,0.611,0.547,0.548,0.531
NCI-H1666,0.483,0.484,0.325,0.553,0.3,0.669,0.717,0.677,0.609,0.637,0.33,0.488,0.52,0.619,0.733,0.583,0.515
NCI-H1792,0.266,0.286,0.284,0.274,0.285,0.694,0.576,0.63,0.617,0.265,0.241,0.265,0.217,–,–,–,–
CAL-12T,0.345,0.472,0.466,–,0.355,0.0401,0.407,0.329,0.479,0.772,0.413,0.452,0.439,0.345,0.259,0.281,0.235
EPLC-272H,0.287,0.365,0.327,0.3,0.299,0.427,0.298,0.339,0.318,0.311,0.284,0.278,0.283,0.193,0.234,0.312,0.172
IA-LM,0.34,0.331,0.353,0.343,0.305,–,–,–,–,0.392,0.372,0.321,0.317,–,–,–,–
PC-14,0.772,0.775,0.708,0.8,–,0.614,0.401,0.366,0.212,0.872,0.59,0.601,0.466,0.602,0.557,0.536,0.419
NCI-H1703,0.286,0.224,0.236,0.273,0.284,–,–,–,–,0.299,0.346,0.275,0.27,–,–,–,–
NCI-H1437,0.311,0.461,0.389,0.375,0.439,0.32,0.303,0.327,0.353,0.373,0.395,0.501,0.381,0.424,0.393,0.394,0.379
NCI-H358,0.338,0.354,0.35,0.27,0.325,0.124,0.137,0.125,0.14,0.301,0.311,0.347,0.312,0.101,0.119,0.106,0.116
LK-2,0.51,0.59,0.492,0.645,0.568,0.697,0.723,0.888,0.697,0.752,0.587,0.599,0.5,0.161,0.178,0.164,0.171
H3255,0.36,0.486,0.533,0.468,0.456,0.32,0.315,0.336,0.306,0.478,0.406,0.445,0.386,0.704,0.602,0.82,0.496
